According to US11185499B2, “Multilayer thin film drug delivery device and methods of making and using the same” (The Regents of the University of California, priority 2011, dated 2021):

Legend:
[1] = Release of FITC-BSA protein from nanostructured PCL devices; type: physicochemical; details: nanostructured PCL devices (n=3), pore size 20-40 nm
Text: Multilayer thin film devices having pore sizes in the range of […]-40 nm were fabricated as described herein.

[2] = Payload calculations and safety consideration; details: device designed for delivery over 6 months, failure
Description: The loading requirements for a device are analyzed based upon a zero-order release profile that maintains concentration in the posterior of the eye for at least a 4 month period. For example, based on a 5 mm×5 mm thin-film with 20 nm pores, with a void space of 50% a maximal drug load in this device is 1.3 mg of lyophilized drug, with release rates as high 2 μg/day/mm^2 based on membrane experiments. Desired release rates depend on drug affinity, vitreous half-life, and target vitreous concentration. […] Complete dose dumping for a device designed for delivery over 6 months would produce systemic drug concentration of less than 3.4 ng/ml upon failure, which falls well below the 11-27 ng/ml threshold thought to inhibit VEGF by 50%. In addition, a multi-chambered reservoir (FIG. 10) minimizes the risk that the entire drug payload could be inadvertently dumped. Based upon conservative estimates of Lucentis© half-life in the vitreous humor, a device loaded with approximately 800 μg of drug is estimated to maintain therapeutic levels for a 6 month or longer period.

| Substance | release rate [1] [µg/day] | time period of release [1] [days] | systemic drug concentration upon complete dose dumping [2] |
| --- | --- | --- | --- |
| FITC-BSA: FITC-BSA protein released from nanostructured PCL devices | 1 | 210 | – |
| ranibizumab: anti-VEGF formulation (Lucentis, Genentech, Inc.) | – | – | less than 3.4 ng/ml |
